Assay results: US20190227053A1, “BIO-ELECTRIC NOSE” (NEW YORK UNIVERSITY, priority 2016, published 2019)

Test system: olfactory bulb glomeruli
Experiment: Odor detection by the bio-electronic nose (surface electrode array on the olfactory bulb)
Format: in vivo, mouse
Settings: FIG. 10
Text: In one embodiment utilizing an organism, such as a mouse, as the chemical detector, the mouse is anesthetized and a craniotomy will be made above one of the OBs. A grid electrode will be positioned on the surface of the bulb. The recording is optimized for different conditions: sub or epi-durally or through a thin layer of skull. Alternatively, a surface electrode can be implanted in conjunction with a probe (such as silicone) inserted to the bulb to obtain signals from higher processing levels, such as the mitral/tufted cells, to improve the filtration of early olfactory responses. Typically, the electrode is divided into several areas (1-4) of 8×8 electrode sites. […]
In one embodiment, a method of interpreting information from the at least one electrode relies on the development of reliable techniques for recording on the surface of the bulb and on algorithms for extracting odor information from these recordings. […] Theta waves, indicative of respiration, are used to verify inhalation in conjunction with readings from the pressure signal. […]
For […], at each session a mouse will be positioned in a head-fixed apparatus similar to that used for anesthetized recordings (FIG. 7). The sniffing/breathing pattern and signals continuously recorded from electrode array, and we will expose the mouse to multiple odor presentations (n˜500). […]

SMILES	minimum detectable concentration (odorant detected by the bio-electronic nose)	EC50 (odorant presented to mouse with electrode array on olfactory bulb, read-out: minimum concentration (EC50) detected by the bio-electronic nose) [nM]
CCCCC(=O)OC [Methyl Valerate]	10^−12 M	
NCCc1ccccc1 [Phenylethylamine]		0.01
